Test results from US20030157200A1, “Use of oligosaccharides to stimulate beta-endorphin production” (priority 2000, published 2003).

Test system: normal human keratinocytes
Assay: Synthesis/secretion of β-endorphin by normal human keratinocytes, assayed by EIA
Format: cell-based
Settings: 24 h; for effect on the production of β-endorphin by normal human keratinocytes (in words): normal human keratinocytes in culture
Procedure: Norman human keratinocytes are cultivated to the point of confluence on a 24-well plate and then incubated in a culture medium for 24 hours in the presence of dibutiryl CAMP (2 mM), interleukin-1β (IL-1β) (500 pg/ml) and the test product, i.e. in this case either Tephrosia purpurea extracts according to Example 1, or stachyose, or ciceritol, at the doses indicated in Tables I, II and III respectively.
Each Tephrosia extract obtained by the process of Example 1 is provided accurately weighed and redissolved at a concentration of 50 mg/ml in an ethanol/water mixture (1/1).
Antiproteases—aprotinin 5 μg/ml, leupeptin 1 μg/ml and PMSF 1 mM —are added to each well in order to limit the action of the proteases.
Each experimental point is duplicated.
After incubation for 24 h, the culture supernatants are recovered and frozen at −80° C.
Positive stimulation controls are carried out in parallel, the cells being treated for 24 h, as above, with either IL-1β 500 pg/ml or dibutyryl CAMP 2 mM.
The β-endorphin secreted is assayed by EIA (kit from Peninsula Laboratoiries) and expressed in pg/ml.
The procedure followed is the same as in the experiments with Tephrosia purpurea extracts except that stachyose and ciceritol are used at the doses indicated in Table II, and the results obtained are indicated in Table II below.

## CO[C@H]1[C@H](O)[C@@H](O[C@H]2O[C@H](CO[C@H]3O[C@H](CO)[C@H](O)[C@H](O)[C@H]3O)[C@H](O)[C@H](O)[C@H]2O)[C@@H](O)[C@H](O)[C@@H]1O [Ciceritol, O-α-D-galactopyranosyl-[1→6]-O-α-D-galactopyranosyl-[1→2]-4-O-methyl-D-chiroinositol]
20 ng/ml, Table II ciceritol first series, Control 1 ± 2
  β-endorphin secreted: 8 ± 3 pg/mL
64 ng/ml, Table II ciceritol second series, Control 3 ± 3
  β-endorphin secreted: 44 ± 7 pg/mL
100 ng/ml, Table II ciceritol first series, Control 1 ± 2
  β-endorphin secreted: 8 ± 4 pg/mL
500 ng/ml, Table II ciceritol first series, Control 1 ± 2
  β-endorphin secreted: 9 ± 5 pg/mL
  effect on the production of β-endorphin by normal human keratinocytes (in words): stimulating effect

## OC[C@H]1O[C@H](OC[C@H]2O[C@H](OC[C@H]3O[C@H](O[C@]4(CO)O[C@H](CO)[C@@H](O)[C@@H]4O)[C@H](O)[C@@H](O)[C@@H]3O)[C@H](O)[C@@H](O)[C@H]2O)[C@H](O)[C@@H](O)[C@H]1O [Stachyose, O-α-D-galactopyranosyl-[1→6]-O-α-D-galactopyranosyl-[1→6]-β-D-fructofuranosyl-α-D-glucopyranoside]
20 ng/ml, Table II stachyose experiment, Control 10 ± 3
  β-endorphin secreted: 16 ± 1 pg/mL
100 ng/ml, Table II stachyose experiment, Control 10 ± 3
  β-endorphin secreted: 22 ± 2 pg/mL
500 ng/ml, Table II stachyose experiment, Control 10 ± 3
  β-endorphin secreted: 30 ± 13 pg/mL
  effect on the production of β-endorphin by normal human keratinocytes (in words): stimulating effect

## CCCC(=O)Nc1ncnc2c1ncn2[C@@H]1O[C@@H]2COP(=O)(O)O[C@H]2[C@H]1OC(=O)CCC [dibutyryl cAMP]
2 mM, positive control, Table I batch B1 block, Control 3 ± 4
  β-endorphin secreted: 87 ± 12 pg/mL
2 mM, positive control, Table I batch B2 experiment, Control 3 ± 4
  β-endorphin secreted: 87 ± 12 pg/mL
2 mM, positive control, Table I batch B3 first series, Control 1 ± 1
  β-endorphin secreted: 10 ± 1 pg/mL
2 mM, positive control, Table I batch B3 second series, Control 1 ± 3
  β-endorphin secreted: 22 ± 1 pg/mL
2 mM, positive control, Table II ciceritol first series, Control 1 ± 2
  β-endorphin secreted: 10 ± 1 pg/mL
2 mM, positive control, Table II ciceritol second series, Control 3 ± 3
  β-endorphin secreted: 87 ± 8 pg/mL
2 mM, positive control, Table II stachyose experiment, Control 10 ± 3
  β-endorphin secreted: 22 ± 1 pg/mL
  effect on the production of β-endorphin by normal human keratinocytes (in words): stimulated the production of β-endorphin

## IL-1β: interleukin-1β, positive stimulation control
500 pg/ml, positive control, Table I batch B1 block, Control 3 ± 4
  β-endorphin secreted: 35 ± 5 pg/mL
500 pg/ml, positive control, Table I batch B2 experiment, Control 3 ± 4
  β-endorphin secreted: 35 ± 5 pg/mL
500 pg/ml, positive control, Table I batch B3 first series, Control 1 ± 1
  β-endorphin secreted: 17 ± 3 pg/mL
500 pg/ml, positive control, Table I batch B3 second series, Control 1 ± 3
  β-endorphin secreted: 25 ± 4 pg/mL
500 pg/ml, positive control, Table II ciceritol first series, Control 1 ± 2
  β-endorphin secreted: 17 ± 3 pg/mL
500 pg/ml, positive control, Table II ciceritol second series, Control 3 ± 3
  β-endorphin secreted: 35 ± 3 pg/mL
500 pg/ml, positive control, Table II stachyose experiment, Control 10 ± 3
  β-endorphin secreted: 25 ± 4 pg/mL
  effect on the production of β-endorphin by normal human keratinocytes (in words): stimulated the production of β-endorphin
